# Measured values taken from patent US6127336A, “Antibacterial and antifungal peptide” (priority 1996, dated 2000).
# No end group written: not given here.
# Assays:
# Type in all cases: cell-based
# [1] = system: Clavibacter michiganensis; assay: Antibacterial activity by microspectrophotometry
# Experimental: (§1) Pure each strain of bacteria used (E. coli; M. luteus), an isolated […] is suspended in 10 ml of DIFCO PB medium (Poor Broth, Luria Bertani medium free of yeast extract) and incubated at 30° C. overnight with slow stirring.
# (§2) The bacteria to be tested are brought to an optical density at 600 nm of 0.001 in fresh culture medium. 10 μl of each fraction is deposited in microtitration plates in the presence of 100 μl of the bacterial suspension. After incubation for 24 hours at 25° C., the growth is evaluated by measuring the absorbance at 600 nm using a microtitration plate reader.
# (§3) Using the same protocol but with phytopathogenic bacteria, the following results are obtained: […]
# Bacillus subtilis = assay: Antibacterial activity by microspectrophotometry; settings: Gram +, 24 hours at 25° C., absorbance at 600 nm
# [2] = system: Fusarium oxysporum meloni; assay: Antifungal activity, phytopathogenic fungi
# Experimental: as §1, §2
# (§4) Using the same protocol but with phytopathogenic fungi, the following results are obtained: […]
# Stemphyllium = assay: Antifungal activity, phytopathogenic fungi
# Experimental: as §1, §2, §4
# Botrytis petuniae = assay: Antifungal activity, phytopathogenic fungi
# Experimental: as §1, §2, §4
# Alternaria dauci = assay: Antifungal activity, phytopathogenic fungi
# Experimental: as §1, §2, §4
# Fusarium oxysporum L = assay: Antifungal activity, phytopathogenic fungi
# Experimental: as §1, §2, §4
# Verticilium toreillis = assay: Antifungal activity, phytopathogenic fungi
# Experimental: as §1, §2, §4
# [3] = system: Xanthomonas campestris pv campestris; assay: Antibacterial activity, phytopathogenic bacteria; settings: same protocol
# Experimental: as §1, §2, §3
# Pseudomonas syringae = assay: Antibacterial activity, phytopathogenic bacteria; settings: same protocol
# Experimental: as §1, §2, §3
# Pseudomonas maculicola = assay: Antibacterial activity, phytopathogenic bacteria; settings: same protocol
# Experimental: as §1, §2, §3
# [4] = system: Xanthomonas vesicatoria B229RI; assay: Antibacterial activity, phytopathogenic bacteria; settings: same protocol
# Experimental: as §1, §2, §3
# [5] = system: Pseudomonas syringae pv syringae; assay: Antibacterial activity, phytopathogenic bacteria; settings: same protocol
# Experimental: as §1, §2, §3
# Pseudomonas syr phaseoli = assay: Antibacterial activity, phytopathogenic bacteria; settings: same protocol
# Experimental: as §1, §2, §3
# Xanthomonas phaseolica = assay: Antibacterial activity, phytopathogenic bacteria; settings: same protocol
# Experimental: as §1, §2, §3
# Pseudomonas valerianella = assay: Antibacterial activity, phytopathogenic bacteria; settings: same protocol
# Experimental: as §1, §2, §3
# [6] = system: Xanthomonas vesicatoria 687.3; assay: Antibacterial activity, phytopathogenic bacteria; settings: same protocol
# Experimental: as §1, §2, §3
# Salmonella typhimurium = assay: Antibacterial activity by microspectrophotometry; settings: Gram -, 24 hours at 25° C., absorbance at 600 nm
# Micrococcus luteus = assay: Antibacterial activity by microspectrophotometry
# Experimental: as §1, §2
# Escherichia coli D31 = assay: Antibacterial activity by microspectrophotometry; settings: Escherichia coli D31, Gram -; 24 hours at 25° C., absorbance at 600 nm
# Experimental: as §1, §2
# Escherichia coli D22 = assay: Antibacterial activity by microspectrophotometry; settings: Escherichia coli D22, Gram -; 24 hours at 25° C., absorbance at 600 nm
# Experimental: as §1, §2
# Aerococcus viridans = assay: Antibacterial activity by microspectrophotometry; settings: Gram +, 24 hours at 25° C., absorbance at 600 nm
# Staphylococcus aureus = assay: Antibacterial activity by microspectrophotometry; settings: Gram +, 24 hours at 25° C., absorbance at 600 nm
# bovine red blood cells = assay: Hemolytic test; settings: synthetic molecule
# Experimental: (§5) All of the antibacterial and hemolytic tests are carried out with the synthetic molecule.
# porcine red blood cells = assay: Hemolytic test; settings: synthetic molecule
# Experimental: as §5
# [7] = medium supplemented with 1 mM CaCl2 and 20 mM KCl
substance,measurement,setting,value
androctonine (RSVCRQIKICRRRGGCYYLCTNRPY; disulfide (positions not given here)) [peptide from scorpion Androctonus australis hemolymph; 4 cysteine residues in two intramolecular disulfide bridges; tests done with the synthetic molecule],MIC,"[1]; Clavibacter michi ganensis, Gram +, Table 1, 24 hours at 25° C., absorbance at 600 nm",6 to 15 µM
same,MIC,"[1]; Clavibacter michiganensis, Table 2, phytopathogenic bacteria, same protocol",6 to 15 µM
same,MIC,Bacillus subtilis,1.5 to 3.0 µM
same,MIC without salts,[2],2 to 4 µM
same,MIC with salts,Stemphyllium; [7],16 to 32 µM
same,MIC without salts,Stemphyllium; without salts,4 to 8 µM
same,MIC with salts,Botrytis petuniae; [7],> 32 µM
same,MIC without salts,Botrytis petuniae; without salts,4 to 8 µM
same,MIC with salts,Alternaria dauci; [7],16 to 32 µM
same,MIC without salts,Alternaria dauci; without salts,4.1 to 8.2 µM
same,MIC with salts,Fusarium oxysporum L; [7],> 32 µM
same,MIC without salts,Fusarium oxysporum L; without salts,2 to 4 µM
same,MIC with salts,Verticilium toreillis; [7],> 32 µM
same,MIC without salts,Verticilium toreillis; without salts,2 to 4 µM
same,MIC,[3],3 to 6 µM
same,MIC,Pseudomonas syringae,0.5 to 1 µM
same,MIC,Pseudomonas maculicola,3 to 6 µM
same,MIC,[4],1.5 to 3 µM
same,MIC,[5],15 to 22 µM
same,MIC,Pseudomonas syr phaseoli,2 to 4 µM
same,MIC,Xanthomonas phaseolica,1 to 2 µM
same,MIC,Pseudomonas valerianella,15 to 22 µM
same,MIC,[6],1.5 to 3 µM
same,MIC,Salmonella typhimurium,3 to 6 µM
same,MIC,"Micrococcus luteus; Micrococcus luteus, Gram +, 24 hours at 25° C., absorbance at 600 nm",0.6 to 1.5 µM
same,antibacterial activity of synthetic molecule compared with native molecule,"Micrococcus luteus; bacterium Micrococcus liteus, synthetic (FMOC, renatured) vs native",same antibacterial activity as the native molecule
same,MIC,Escherichia coli D31,3 to 6 µM
same,MIC,Escherichia coli D22,> 30 µM
same,MIC,Aerococcus viridans,0.3 to 0.6 µM
same,MIC,Staphylococcus aureus,15 to 30 µM
same,lytic effect on red blood cells,bovine red blood cells,no lytic effect
same,lytic effect on red blood cells,porcine red blood cells,no lytic effect
